Holding throughout (settings): at 1 mM
Test [1] addresses T1, Tyrosinase (Agaricus bisporus) (UniProt O42713).
T1 sequence (whole entry): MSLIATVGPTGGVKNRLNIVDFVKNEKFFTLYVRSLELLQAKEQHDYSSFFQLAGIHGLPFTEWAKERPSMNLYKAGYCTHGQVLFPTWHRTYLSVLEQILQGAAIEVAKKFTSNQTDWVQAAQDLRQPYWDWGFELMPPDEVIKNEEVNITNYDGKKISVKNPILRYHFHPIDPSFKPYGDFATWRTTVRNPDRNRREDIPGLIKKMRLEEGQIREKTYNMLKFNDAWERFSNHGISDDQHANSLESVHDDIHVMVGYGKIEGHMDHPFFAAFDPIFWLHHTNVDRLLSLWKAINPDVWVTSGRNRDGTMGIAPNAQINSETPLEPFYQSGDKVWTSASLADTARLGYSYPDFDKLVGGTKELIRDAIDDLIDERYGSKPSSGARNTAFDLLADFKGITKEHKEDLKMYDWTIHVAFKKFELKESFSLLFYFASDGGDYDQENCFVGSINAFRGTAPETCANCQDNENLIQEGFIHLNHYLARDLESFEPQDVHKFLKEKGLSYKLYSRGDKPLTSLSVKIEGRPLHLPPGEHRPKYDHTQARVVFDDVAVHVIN

The target of test [2] is T2, Lethal factor (Bacillus anthracis) (UniProt P15917).
T2 sequence (whole entry): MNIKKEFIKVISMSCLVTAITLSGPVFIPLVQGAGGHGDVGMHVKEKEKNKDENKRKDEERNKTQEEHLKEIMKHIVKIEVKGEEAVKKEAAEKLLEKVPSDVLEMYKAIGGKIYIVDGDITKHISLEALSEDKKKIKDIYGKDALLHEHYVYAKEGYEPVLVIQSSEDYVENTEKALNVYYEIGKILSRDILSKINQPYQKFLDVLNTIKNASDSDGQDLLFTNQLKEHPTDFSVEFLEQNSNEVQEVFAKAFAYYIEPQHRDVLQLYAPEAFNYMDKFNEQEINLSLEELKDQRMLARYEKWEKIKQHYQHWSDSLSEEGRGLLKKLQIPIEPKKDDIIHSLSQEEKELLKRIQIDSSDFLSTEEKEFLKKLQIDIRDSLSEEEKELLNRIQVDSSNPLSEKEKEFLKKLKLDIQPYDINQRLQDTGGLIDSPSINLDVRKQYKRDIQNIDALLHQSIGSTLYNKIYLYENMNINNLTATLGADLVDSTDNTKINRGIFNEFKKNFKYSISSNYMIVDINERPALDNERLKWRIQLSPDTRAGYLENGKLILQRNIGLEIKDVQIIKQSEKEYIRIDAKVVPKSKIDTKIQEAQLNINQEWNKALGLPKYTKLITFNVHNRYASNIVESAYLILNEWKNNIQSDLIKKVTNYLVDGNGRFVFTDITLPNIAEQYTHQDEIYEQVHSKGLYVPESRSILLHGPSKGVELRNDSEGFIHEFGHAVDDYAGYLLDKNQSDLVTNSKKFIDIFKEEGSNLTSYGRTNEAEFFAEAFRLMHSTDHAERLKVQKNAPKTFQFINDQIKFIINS

In test [3] the target is 72 kDa type IV collagenase (Homo sapiens, UniProt P08253).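 Also: recombinant human enzyme, inhibition read after a 30 min incubation.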
Test [4] concerns the target Stromelysin-1 (Homo sapiens) (UniProt P08254).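 Also: recombinant enzyme, inhibition read after a 30 min incubation.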
The target of test [5] is Neutrophil collagenase (Homo sapiens) (UniProt P22894).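 Also: recombinant human MMP8 enzyme, percent inhibition read after 30 min.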
Test [6] has as its target Matrix metalloproteinase-9 (Homo sapiens) (UniProt P14780).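 Also: recombinant human MMP9, activity read after 30 min.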
The target of test [7] is T3, Nitric oxide synthase, inducible (Mus musculus) (UniProt P29477).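 Also: recombinant enzyme, activity read out colorimetrically after 40 min.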
T3 sequence (whole entry): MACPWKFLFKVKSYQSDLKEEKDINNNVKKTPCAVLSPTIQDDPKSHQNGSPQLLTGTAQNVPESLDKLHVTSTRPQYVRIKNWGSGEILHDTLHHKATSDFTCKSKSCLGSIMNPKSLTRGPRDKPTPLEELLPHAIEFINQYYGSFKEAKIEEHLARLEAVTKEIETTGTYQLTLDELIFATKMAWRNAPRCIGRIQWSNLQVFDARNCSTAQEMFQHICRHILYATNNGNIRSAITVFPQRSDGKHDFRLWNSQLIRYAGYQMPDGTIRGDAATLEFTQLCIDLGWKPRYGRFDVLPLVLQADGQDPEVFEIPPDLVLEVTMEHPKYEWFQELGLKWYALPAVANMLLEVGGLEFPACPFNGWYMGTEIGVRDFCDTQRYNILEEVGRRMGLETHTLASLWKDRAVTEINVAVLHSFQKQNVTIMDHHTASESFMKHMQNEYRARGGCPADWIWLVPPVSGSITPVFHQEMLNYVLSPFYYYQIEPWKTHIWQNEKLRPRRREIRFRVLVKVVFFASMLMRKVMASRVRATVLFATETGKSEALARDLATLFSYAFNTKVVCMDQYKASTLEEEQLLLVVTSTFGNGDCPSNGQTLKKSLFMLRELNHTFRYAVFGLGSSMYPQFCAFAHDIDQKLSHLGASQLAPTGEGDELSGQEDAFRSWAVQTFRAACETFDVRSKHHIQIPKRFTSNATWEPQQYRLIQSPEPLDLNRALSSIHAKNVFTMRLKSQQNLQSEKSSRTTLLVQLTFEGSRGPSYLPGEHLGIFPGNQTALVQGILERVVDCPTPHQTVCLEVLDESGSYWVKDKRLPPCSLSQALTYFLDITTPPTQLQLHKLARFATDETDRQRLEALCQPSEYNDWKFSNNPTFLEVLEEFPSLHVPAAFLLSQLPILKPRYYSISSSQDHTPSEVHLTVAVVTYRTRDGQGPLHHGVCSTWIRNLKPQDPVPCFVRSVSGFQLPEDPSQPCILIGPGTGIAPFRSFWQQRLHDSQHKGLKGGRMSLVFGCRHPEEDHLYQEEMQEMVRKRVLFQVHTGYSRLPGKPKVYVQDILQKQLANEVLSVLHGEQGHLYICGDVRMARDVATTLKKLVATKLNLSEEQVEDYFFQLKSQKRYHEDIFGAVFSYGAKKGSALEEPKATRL

Matrix metalloproteinase-9 (Homo sapiens), sequence (P14780 whole entry): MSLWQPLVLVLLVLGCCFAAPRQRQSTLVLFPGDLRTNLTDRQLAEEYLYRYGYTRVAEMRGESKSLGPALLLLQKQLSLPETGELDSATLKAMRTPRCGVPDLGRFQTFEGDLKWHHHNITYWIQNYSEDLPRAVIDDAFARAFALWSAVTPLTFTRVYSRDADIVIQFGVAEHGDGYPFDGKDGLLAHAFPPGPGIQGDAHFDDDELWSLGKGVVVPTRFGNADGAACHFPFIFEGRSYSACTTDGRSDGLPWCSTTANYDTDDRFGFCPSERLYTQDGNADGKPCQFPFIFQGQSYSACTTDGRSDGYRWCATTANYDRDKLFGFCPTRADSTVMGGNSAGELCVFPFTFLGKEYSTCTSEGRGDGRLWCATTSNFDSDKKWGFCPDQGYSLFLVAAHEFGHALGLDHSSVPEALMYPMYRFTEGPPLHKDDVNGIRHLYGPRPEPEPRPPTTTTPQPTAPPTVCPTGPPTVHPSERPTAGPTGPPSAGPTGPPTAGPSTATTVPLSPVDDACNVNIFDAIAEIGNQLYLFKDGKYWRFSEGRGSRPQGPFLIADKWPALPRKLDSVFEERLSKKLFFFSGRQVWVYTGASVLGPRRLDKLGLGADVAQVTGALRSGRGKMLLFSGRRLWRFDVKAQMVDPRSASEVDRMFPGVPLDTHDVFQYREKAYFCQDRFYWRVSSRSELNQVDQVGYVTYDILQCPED
72 kDa type IV collagenase, sequence (P08253 110-660 limits assumed): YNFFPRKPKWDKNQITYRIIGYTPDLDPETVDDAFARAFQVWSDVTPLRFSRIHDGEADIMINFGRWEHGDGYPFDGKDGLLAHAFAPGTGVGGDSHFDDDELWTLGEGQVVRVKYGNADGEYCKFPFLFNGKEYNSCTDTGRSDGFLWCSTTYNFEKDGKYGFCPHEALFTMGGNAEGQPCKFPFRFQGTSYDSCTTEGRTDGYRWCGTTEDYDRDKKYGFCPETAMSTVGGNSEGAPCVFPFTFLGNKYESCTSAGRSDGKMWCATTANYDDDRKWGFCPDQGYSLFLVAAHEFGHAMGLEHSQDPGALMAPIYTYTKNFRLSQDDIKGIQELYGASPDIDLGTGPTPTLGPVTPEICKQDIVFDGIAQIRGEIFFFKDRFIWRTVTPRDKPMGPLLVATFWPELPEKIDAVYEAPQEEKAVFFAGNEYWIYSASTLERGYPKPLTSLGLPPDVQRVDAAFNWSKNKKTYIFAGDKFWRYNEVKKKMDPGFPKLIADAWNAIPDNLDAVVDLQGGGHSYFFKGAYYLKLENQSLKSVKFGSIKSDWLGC
Neutrophil collagenase (Homo sapiens), sequence (P22894 101-467 limits assumed): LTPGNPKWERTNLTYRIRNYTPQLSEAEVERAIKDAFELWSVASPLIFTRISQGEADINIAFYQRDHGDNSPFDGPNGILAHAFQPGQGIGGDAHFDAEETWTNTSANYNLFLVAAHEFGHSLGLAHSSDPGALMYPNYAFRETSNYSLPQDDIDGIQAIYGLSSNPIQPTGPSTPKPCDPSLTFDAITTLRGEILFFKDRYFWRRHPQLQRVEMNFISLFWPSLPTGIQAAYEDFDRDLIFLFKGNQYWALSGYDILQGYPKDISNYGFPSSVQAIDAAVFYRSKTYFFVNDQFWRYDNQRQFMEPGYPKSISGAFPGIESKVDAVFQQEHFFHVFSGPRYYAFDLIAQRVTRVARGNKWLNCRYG
Stromelysin-1 (Homo sapiens), sequence (P08254 100-477 limits assumed): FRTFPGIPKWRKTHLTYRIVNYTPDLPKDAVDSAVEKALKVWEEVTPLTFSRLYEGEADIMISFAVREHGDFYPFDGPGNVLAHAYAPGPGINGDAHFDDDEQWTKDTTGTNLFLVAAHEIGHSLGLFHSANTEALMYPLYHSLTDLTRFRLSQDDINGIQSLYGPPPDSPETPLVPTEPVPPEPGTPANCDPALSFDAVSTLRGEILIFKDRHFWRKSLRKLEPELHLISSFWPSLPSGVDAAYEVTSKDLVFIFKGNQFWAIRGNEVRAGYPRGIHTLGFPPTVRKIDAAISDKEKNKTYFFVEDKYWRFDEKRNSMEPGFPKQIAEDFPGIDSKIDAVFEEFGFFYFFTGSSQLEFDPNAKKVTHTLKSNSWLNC

What is called inhibition is the change of the read-out against control, counted positive when it falls. Consider `O=C(O)c1ccccc1O`, for which the inhibition in test [1] is 97%; in test [2] it was 6%; in test [3], 12%; in test [4] it was -2%; in test [5] it was 14%; in test [6], 12%. Also, the inhibition in test [7] stood at 13%.
On to `Cc1cc(O)nc(C)n1`, for which the inhibition is -10% in test [1]; 18% in test [2]; 2% in test [3]; 6% in test [4]; 11% in test [5]; 1% in test [6]. For the same compound, the inhibition in test [7] is 8%.
For the compound `c1ccc(CNCc2ccccn2)nc1`, the inhibition in test [1] was 69%; in test [2], 41%; in test [3], 100%; in test [4], 93%; in test [5], 100%; in test [6], 84%. Also, the inhibition in test [7] is -2%.
`Cc1ccc(O)c(C(=O)O)c1`: the inhibition in test [1] came out at 98%; in test [2], 56%; in test [3], 65%; in test [4], 76%; in test [5], 26%; in test [6] it was 2%. Moreover, the inhibition in test [7] came out at 21%.
Consider `O=c1ccocc1O`, for which the inhibition in test [1] turned out to be 38%; in test [2], 29%; in test [3], 48%; in test [4], 35%; in test [5] it was 43%; in test [6] it was 45%. Besides, the inhibition in test [7] stood at 22%.
Take `Cc1cc(O)nc(O)n1`: the inhibition in test [1] is -4%; in test [2] it was 8%; in test [3], -7%; in test [4], 7%; in test [5] it was 11%; in test [6] it was 1%. Further, the inhibition in test [7] was determined as 8%.
Regarding `O=C(O)c1cccc(O)c1O`, the inhibition in test [1] is 88%; in test [2], 9%; in test [3], -1%; in test [4], -1%; in test [5], 10%; in test [6], 11%. The inhibition in test [7] worked out at 2%.
Turning to `O=C(O)c1cc(F)ccc1O`, the inhibition in test [1] was 98%; in test [2] it was 16%; in test [3] it was -2%; in test [4], -2%; in test [5] it was -1%; in test [6] it was 21%. Also, the inhibition in test [7] turned out to be 1%.
With `Cc1occ(O)c(=O)c1C(=O)O`, the inhibition was 96% in test [1]; 45% in test [2]; 56% in test [3]; 80% in test [4]; 55% in test [5]; 51% in test [6]. Besides, the inhibition in test [7] was 17%.
`C1CNCCNCCN1`: the inhibition in test [1] worked out at 68%; in test [2], 59%; in test [3], 100%; in test [4], 48%; in test [5], 104%; in test [6], 100%. Also, the inhibition in test [7] turned out to be 0%.
As to `[O-][n+]1cccc2cccc(O)c21`, the inhibition in test [1] stood at 29%; in test [2], 59%; in test [3] it was 62%; in test [4] it was 81%; in test [5], 64%; in test [6], 67%. The inhibition in test [7] worked out at 28%.
On to `Cc1nc(O)nc(O)c1C`, for which the inhibition in test [1] was 32%; in test [2] it was 28%; in test [3], 5%; in test [4], 10%; in test [5], 2%; in test [6] it was -4%. Further, the inhibition in test [7] is 46%.
`O=c1cc(CCl)occ1O`: the inhibition in test [1] stood at 94%; in test [2] it was 30%; in test [3], 65%; in test [4] it was 68%; in test [5] it was 59%; in test [6], 42%. In addition, the inhibition in test [7] was determined as 63%.
For `Oc1ncccn1`, the inhibition in test [1] was determined as 92%; in test [2] it was 28%; in test [3] it was 24%; in test [4] it was 49%; in test [5], 100%; in test [6], 51%. The inhibition in test [7] amounted to 6%.
For the compound `O=C(O)c1cccc(Br)n1`, the inhibition in test [1] is 90%; in test [2], 75%; in test [3] it was -4%; in test [4], 18%; in test [5] it was 1%; in test [6], 4%. Besides, in test [7], the inhibition came to 17%.
On to `O=C(O)c1cccc[n+]1[O-]`, for which the inhibition in test [1] came out at 88%; in test [2] it was 40%; in test [3], 1%; in test [4], 18%; in test [5], 21%; in test [6], 8%. Besides, the inhibition in test [7] was -1%.
`O=C(O)c1ncccc1O`: the inhibition was 87% in test [1]; 43% in test [2]; 58% in test [3]; 56% in test [4]; 56% in test [5]; 19% in test [6]. Moreover, the inhibition in test [7] was 46%.

The record behind these values is ChEMBL document CHEMBL1649420, “Identifying chelators for metalloprotein inhibitors using a fragment-based approach” (J Med Chem, 2011).
